Data from publication PMC11602940, “Assessing multi-target antiviral and antioxidant activities of natural compounds against SARS-CoV-2: an integrated in vitro and in silico study” (Bioresources and Bioprocessing, 2024).
Converted amounts (≈) assume the structure as drawn.

Columns and labels:
SARS-CoV-2 = format: cell-based
Vero CCL-81 cells [1] = assay: MTT cytotoxicity assay; format: cell-based; details: 48 h
Procedure: An MTT (3-[4,5-dimethylthiazol-2-yl]-2,5 diphenyl tetrazolium bromide) assay was used to measure the effects of the selected compounds on Vero CCL-81 cells to ascertain the cytotoxicity of the compounds (Njeru and Muema [2021]; El-Shehawy et al. [2023]). To summarize, Vero CCL-81 cells were seeded in 96-well plates with 1.0 × 10^4 cells per well in DMEM supplemented with 2% FBS at a density of 1.0 × 10^4 cells per well. In the following step, the plates were incubated at 37 °C with 5% CO2 for 24 h before they were collected. A dilution of 150 µL of compounds was added in quadruplicate to each well after the incubation, and the wells were kept at 37 °C with 5% CO2 for 48 h. After the PBS was added to each well, a final step was to add 30 µL of MTT, remove the supernatants, and wash with PBS twice. A 2 h incubation period was conducted after MTT addition, at 37 °C, using 5% CO2, and it was protected from light for 2 h. A 100 µL/well DMSO solution was added to the wells to dissolve the formazan crystals (El-Sewedy et al. [2023]). Positive controls (cells treated with a known cytotoxic agent) and negative controls (untreated cells) were included in each experiment and were in triplicate.

Vero CCL-81 cells [2] = assay: Dose-dependent assay (Chou-Talalay, CompuSyn) from MTT data; format: cell-based
Procedure: The compounds were analyzed using MTT assay data. By applying the Chou-Talalay method, the dose-dependent effect was calculated (Elwakeel et al. [2019]). This calculation was performed using CompuSyn software. The dose–effect curves were created for both single treatments, and the fraction affected (Fa) values were determined for each dose and corresponding effect as previously reported (El-Sewedy et al. [2023]). The dose-dependent assay was carried out in triplicate to guarantee reproducibility.

[3] = Ferric reducing antioxidant power assay (FRAP)
Procedure: The FRAP assay is based on the reduction of ferric ions (Fe^3⁺) to ferrous ions (Fe^2⁺) in the presence of antioxidants. The reduced Fe^2⁺ forms a blue-colored complex with 2,4,6-tripyridyl-s-triazine (TPTZ), and the intensity of the color is directly proportional to the reducing power of the sample, which can be quantified spectrophotometrically. For the assay, an acetate buffer (300 mM, pH 3.6) is prepared by dissolving […] in 1 L of distilled water. The TPTZ solution (10 mM) is dissolved in 40 mM HCl, and the ferric chloride solution (FeCl₃, 20 mM) is prepared separately. The FRAP reagent is freshly prepared before the assay by mixing 10 parts acetate buffer, 1 part TPTZ solution, and 1 part FeCl₃ solution. This reagent is kept at 37 °C to ensure its stability during the reaction. For the sample preparation, different concentrations of samples were dissolved in methanol. Trolox, a well-known antioxidant, is used as the positive control and prepared at the same concentrations for comparison. To conduct the assay, 100 µL of each sample or Trolox solution is mixed with 3 mL of freshly prepared FRAP reagent in a 96-well plate or test tube. The mixtures are incubated at 37 °C for 30 min, allowing the antioxidants in the samples to reduce the Fe^3⁺ ions to Fe^2⁺. After incubation, the absorbance of the resulting blue-colored complex is measured at 593 nm using a UV–visible spectrophotometer. The FRAP value of each sample is calculated by comparing the absorbance to a standard curve generated using known concentrations of ferrous sulfate (FeSO₄). The antioxidant capacity is expressed as µmol Fe^2⁺ equivalents/g of the sample. The experiment included three separate readings for every measurement.

[4] = Cupric ion reducing antioxidant capacity assay (CUPRAC)
Procedure: The CUPRAC assay evaluates the ability of antioxidants to reduce cupric ions (Cu^2⁺) to cuprous ions (Cu^1⁺), forming a stable colored complex with neocuproine. For the assay, a CUPRAC reagent is prepared by mixing 10 mL of 10 mM copper(II) chloride (CuCl₂), 10 mL of 7.5 mM neocuproine, and 10 mL of ammonium acetate buffer (pH 7.0). […] Trolox is again used as the positive control and prepared at the same concentrations. For the assay, 1 mL of each sample concentration or Trolox is mixed with 1 mL of CUPRAC reagent in a 96-well plate or test tube. The reaction mixture is incubated at room temperature for 30 min to allow a complete reduction of Cu^2⁺ to Cu^1⁺. The absorbance is then measured at 450 nm using a UV–visible spectrophotometer. The antioxidant capacity is determined by comparing the absorbance to a Trolox standard curve, and the results were expressed as µmol Trolox equivalents/g of the sample. All measurements are performed in triplicate.

[5] = ABTS radical cation scavenging activity
Procedure: The activity of scavenging ABTS radical cation was assessed across various concentrations, and the outcomes were juxtaposed with those obtained from standard materials. The selected compounds and vitamin C were evaluated at corresponding concentrations, following the methodology outlined in a prior study (AlBalawi et al. [2023]). Using the absorbance reading at 734 nm, the percentage of ABTS radical cation scavenging activity was computed using the formula: %ABTSradicalcationscavengingactivity=1-AsampleAsampleAcontrolAcontrol×100TopofForm

For COc1cc(/C=C/C(=O)CC(=O)/C=C/c2ccc(O)c(OC)c2)ccc1O [Curcumin], which “effect on SARS-CoV-2 viral titer” value (SARS-CoV-2) is on record?
The value was “reduced viral titer”.

What about the IC50 (Vero CCL-81 cells [1]) of the same compound?
Its IC50 is 83.2 mg/L (≈ 226 µM).

And the “Dose at fraction affected (Fa)” value (Vero CCL-81 cells [2]; Fa 0.5, 48 h treatment)?
The value was 9.421.

And the “Dose at fraction affected (Fa)” value (Vero CCL-81 cells [2]; Fa 0.75, 48 h treatment)?
Its value is 20.7718.

And the “Dose at fraction affected (Fa)” value (Vero CCL-81 cells [2]; Fa 0.9, 48 h treatment)?
Its value is 45.7973.

And the “Dose at fraction affected (Fa)” value (Vero CCL-81 cells [2]; Fa 0.95, 48 h treatment)?
Its value is 78.4112.

What about the “Dose at fraction affected (Fa)” value (Vero CCL-81 cells [2]; Fa 0.97, 48 h treatment) of the same compound?
The value was 114.960.

For O=c1c(O)c(-c2ccc(O)c(O)c2)oc2cc(O)cc(O)c12 [Quercetin], which “concentration to which antiviral properties were limited” value (SARS-CoV-2) is on record?
The value was 100 µg/mL.

And the “effect on SARS-CoV-2 viral titer” value (SARS-CoV-2)?
Its value is “no noticeable change in viral titer”.

What about the “FRAP ± SD” value ([3]; 10 µg/mL) of the same compound?
The value was 120.30 ± 4.00 μmol Fe^2⁺ eq/g.

And the “FRAP ± SD” value ([3]; 20 µg/mL)?
Its value is 200.15 ± 5.20 μmol Fe^2⁺ eq/g.

What about the “FRAP ± SD” value ([3]; 40 µg/mL) of the same compound?
Its value is 350.45 ± 7.50 μmol Fe^2⁺ eq/g.

What about the “FRAP ± SD” value ([3]; 80 µg/mL) of the same compound?
Its value is 600.55 ± 10.10 μmol Fe^2⁺ eq/g.

And the “FRAP ± SD” value ([3]; 100 µg/mL)?
Its value is 800.45 ± 12.50 μmol Fe^2⁺ eq/g.

And the “CUPRAC ± SD” value ([4]; 10 µg/mL)?
The value was 115.25 ± 3.70 μmol Trolox eq/g.

And the “CUPRAC ± SD” value ([4]; 20 µg/mL)?
Its value is 190.20 ± 5.00 μmol Trolox eq/g.

What about the “CUPRAC ± SD” value ([4]; 40 µg/mL) of the same compound?
The value was 340.30 ± 7.00 μmol Trolox eq/g.

What about the “CUPRAC ± SD” value ([4]; 80 µg/mL) of the same compound?
The value was 590.10 ± 9.50 μmol Trolox eq/g.

What about the “CUPRAC ± SD” value ([4]; 100 µg/mL) of the same compound?
The value was 780.55 ± 11.20 μmol Trolox eq/g.

And the “ABTS ± SD” value ([5]; 10 µg/mL)?
Its value is 130.40 ± 4.50 μmol Trolox eq/g.

And the “ABTS ± SD” value ([5]; 20 µg/mL)?
Its value is 210.10 ± 6.00 μmol Trolox eq/g.

What about the “ABTS ± SD” value ([5]; 40 µg/mL) of the same compound?
The value was 360.40 ± 8.00 μmol Trolox eq/g.

And the “ABTS ± SD” value ([5]; 80 µg/mL)?
The value was 620.20 ± 11.50 μmol Trolox eq/g.

And the “ABTS ± SD” value ([5]; 100 µg/mL)?
The value was 820.30 ± 14.00 μmol Trolox eq/g.

And the IC50 (Vero CCL-81 cells [1])?
Its IC50 is 55.2 mg/L (≈ 183 µM).

What about the “Dose at fraction affected (Fa)” value (Vero CCL-81 cells [2]; Fa 0.5, 48 h treatment) of the same compound?
Its value is 12.0260.

What about the “Dose at fraction affected (Fa)” value (Vero CCL-81 cells [2]; Fa 0.75, 48 h treatment) of the same compound?
The value was 46.3852.

And the “Dose at fraction affected (Fa)” value (Vero CCL-81 cells [2]; Fa 0.9, 48 h treatment)?
Its value is 178.911.

What about the “Dose at fraction affected (Fa)” value (Vero CCL-81 cells [2]; Fa 0.95, 48 h treatment) of the same compound?
Its value is 448.103.

And the “Dose at fraction affected (Fa)” value (Vero CCL-81 cells [2]; Fa 0.97, 48 h treatment)?
The value was 861.173.

For CCC(CC)COC(=O)[C@H](C)N[P@](=O)(OC[C@H]1O[C@@](C#N)(c2ccc3c(N)ncnn23)[C@H](O)[C@@H]1O)Oc1ccccc1 [RVD, Remdesivir, reference compound], which “decrease in SARS-CoV-2 viral titer” value (SARS-CoV-2) is on record?
Its value is 100%.

For Cc1c(C)c2c(c(C)c1O)CCC(C)(C(=O)O)O2 (stereo not shown) [Trolox, reference compound], which “FRAP ± SD” value ([3]; 1000 µg/mL) is on record?
Its value is 1200.00 ± 20.00 μmol Fe^2⁺ eq/g.

What about the “CUPRAC ± SD” value ([4]; 1000 µg/mL) of the same compound?
Its value is 1100.00 ± 17.50 μmol Trolox eq/g.

And the “ABTS ± SD” value ([5]; 1000 µg/mL)?
Its value is 1300.00 ± 22.00 μmol Trolox eq/g.
